What was measured:
Influenza A virus [1] = assay: In vitro antiviral activity against Influenza A.; assay type: functional, organism-based
[2] = target: Neuraminidase (Influenza A virus (A/Puerto Rico/8/1934(H1N1)), UniProt P03468); assay: Inhibition of influenza A sialidase in vitro.
Influenza A virus [3] = assay: Inhibitory concentration by Plaque reduction assay; range-1.9-20; assay type: functional, organism-based
Influenza A virus [4] = assay: Inhibitory concentration by Plaque reduction assay; range-1.9-12; assay type: functional, organism-based

Chain of Neuraminidase (Influenza A virus (A/Puerto Rico/8/1934(H1N1)), UniProt P03468) (P03468 whole entry): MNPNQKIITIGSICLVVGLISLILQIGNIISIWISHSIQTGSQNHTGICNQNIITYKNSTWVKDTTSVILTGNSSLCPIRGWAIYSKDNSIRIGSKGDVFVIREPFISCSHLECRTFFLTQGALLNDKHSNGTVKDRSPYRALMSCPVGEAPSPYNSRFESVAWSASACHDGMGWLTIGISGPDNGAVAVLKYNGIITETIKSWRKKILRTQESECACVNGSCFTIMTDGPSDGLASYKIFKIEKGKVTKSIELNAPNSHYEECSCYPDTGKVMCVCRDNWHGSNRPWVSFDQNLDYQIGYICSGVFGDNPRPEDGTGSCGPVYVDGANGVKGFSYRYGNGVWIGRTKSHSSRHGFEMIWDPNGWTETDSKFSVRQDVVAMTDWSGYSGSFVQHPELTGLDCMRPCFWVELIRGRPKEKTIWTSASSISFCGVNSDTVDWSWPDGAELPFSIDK

Structure (SMILES)	IC50 (Influenza A virus [1]) [ng/mL]	IC50 [2] [nM]	IC50 (Influenza A virus [3]) [ng/mL]	IC50 (Influenza A virus [4]) [ng/mL]
CC(=O)N[C@H]1[C@H]([C@H](OCC2CCCCC2)[C@H](O)CO)OC(C(=O)O)=C[C@@H]1NC(=N)N.O=C(O)C(F)(F)F	3	67.5	–	–
CCO[C@H](CC)[C@@H]1OC(C(=O)O)=C[C@H](N=C(N)N)[C@H]1NC(C)=O.O=C(O)C(F)(F)F	16	79.3	–	–
CCCCCCCCCCCCO[C@@H]([C@@H]1OC(C(=O)O)=C[C@H](N=C(N)N)[C@H]1NC(C)=O)[C@H](O)CO.O=C(O)C(F)(F)F	2.2	80.7	–	–
CCCO[C@@H]([C@@H]1OC(C(=O)O)=C[C@H](N=C(N)N)[C@H]1NC(C)=O)[C@H](O)CO.O=C(O)C(F)(F)F	1.5	62.7	–	–
CCCO[C@H](CC)[C@@H]1OC(C(=O)O)=C[C@H](N=C(N)N)[C@H]1NC(C)=O.O=C(O)C(F)(F)F	9	30.9	–	–
CCCCCCCCCCCCO[C@H](CC)[C@@H]1OC(C(=O)O)=C[C@H](N=C(N)N)[C@H]1NC(C)=O.O=C(O)C(F)(F)F	> 50	48.7	–	–
CC(=O)NCCO[C@@H]([C@@H]1OC(C(=O)O)=C[C@H](N=C(N)N)[C@H]1NC(C)=O)[C@H](O)CO.O=C(O)C(F)(F)F	2.4	18.4	–	–
CCCCCCCCO[C@H](CC)[C@@H]1OC(C(=O)O)=C[C@H](N=C(N)N)[C@H]1NC(C)=O.O=C(O)C(F)(F)F	40	31.5	–	–
CCO[C@@H]([C@@H]1OC(C(=O)O)=C[C@H](N=C(N)N)[C@H]1NC(C)=O)[C@H](O)CO	–	55.7	–	–
CC(=O)N[C@H]1[C@H]([C@H](OCCN)[C@H](O)CO)OC(C(=O)O)=C[C@@H]1NC(=N)N.O=C(O)C(F)(F)F	7.5	97.5	–	–
CCCCCO[C@H](CC)[C@@H]1OC(C(=O)O)=C[C@H](N=C(N)N)[C@H]1NC(C)=O.O=C(O)C(F)(F)F	3.8	18.8	–	–
CCCCCCCCCCCCCCO[C@@H]([C@@H]1OC(C(=O)O)=C[C@H](N=C(N)N)[C@H]1NC(C)=O)[C@H](O)CO.O=C(O)C(F)(F)F	11	408	–	–
CC(=O)N[C@H]1[C@H]([C@H](OCCO)[C@H](O)CO)OC(C(=O)O)=C[C@@H]1NC(=N)N.O=C(O)C(F)(F)F	1.8	21	–	–
CC(=O)N[C@H]1[C@H]([C@H](OCCC2CCCCC2)[C@H](O)CO)OC(C(=O)O)=C[C@@H]1NC(=N)N.O=C(O)C(F)(F)F	1.9	47.3	–	–
CCCCCCCCO[C@@H]([C@@H]1OC(C(=O)O)=C[C@H](N=C(N)N)[C@H]1NC(C)=O)[C@H](O)CO.O=C(O)C(F)(F)F	1.8	36.2	–	–
CCCCCO[C@@H]([C@@H]1OC(C(=O)O)=C[C@H](N=C(N)N)[C@H]1NC(C)=O)[C@H](O)CO.O=C(O)C(F)(F)F	2	27.7	–	–
CC(=O)N[C@H]1[C@H]([C@H](OCCN=[N+]=[N-])[C@H](O)CO)OC(C(=O)O)=C[C@@H]1NC(=N)N.O=C(O)C(F)(F)F	1.5	28.7	–	–
CC(=O)N[C@H]1[C@H]([C@H](O)[C@H](O)CO)OC(C(=O)O)=C[C@@H]1NC(=N)N.O=C(O)C(F)(F)F [ZANAMIVIR TFA]	–	–	1.9	1.9
